Here are results for one compound from publication PMC12013614 (RSC Advances, 2025).

Marks after values point to notes of the source that are not given here.

For one assay, the target named is VEGFR-2 (Homo sapiens, UniProt P35968). Put plainly: In vitro VEGFR-2 kinase inhibition. In kind it is biochemical.
The subject of another assay is MDA-231 cells. Put plainly: Cell migration and wound healing assay. The following applies: 11 μM (0.5 IC50), untreated control 58.95. It is filed as cell-based.
For assay [1], the system named is MDA-MB-231 cells. Put plainly: Apoptosis analysis, Annexin V-FITC/PI flow cytometry. In kind it is cell-based.
For assay [2], the system named is MDA-MB-231 cells. Put plainly: Cell cycle analysis, PI flow cytometry. It is filed as cell-based. The following applies: 21.68 µM, 48 h.
The subject of another assay is BAX. Briefly: qRT-PCR gene expression, BAX. It is filed as cell-based. The following applies: MDA-231 cells; 21.68 μM; control set to 1; mean ± SEM.
The next assay concerns Bcl-2. Briefly: qRT-PCR gene expression, Bcl-2. It is filed as cell-based. The following applies: MDA-231 cells; 21.68 μM; control set to 1; mean ± SEM. (Real-time PCR tracks product formation cycle by cycle.)
The next assay concerns BAX/Bcl-2 ratio. It is filed as cell-based. The following applies: MDA-231 cells; 21.68 μM; control set to 1.
A further assay deals with caspase-8. Put plainly: qRT-PCR gene expression, caspase-8. It is filed as cell-based. The following applies: MDA-231 cells; 21.68 μM; control set to 1; mean ± SEM.
For another assay, the system named is caspase-9. Put plainly: qRT-PCR gene expression, caspase-9. The following applies: MDA-231 cells; 21.68 μM; control set to 1; mean ± SEM. In kind it is cell-based.

Sequence of VEGFR-2 (P35968 20-1356): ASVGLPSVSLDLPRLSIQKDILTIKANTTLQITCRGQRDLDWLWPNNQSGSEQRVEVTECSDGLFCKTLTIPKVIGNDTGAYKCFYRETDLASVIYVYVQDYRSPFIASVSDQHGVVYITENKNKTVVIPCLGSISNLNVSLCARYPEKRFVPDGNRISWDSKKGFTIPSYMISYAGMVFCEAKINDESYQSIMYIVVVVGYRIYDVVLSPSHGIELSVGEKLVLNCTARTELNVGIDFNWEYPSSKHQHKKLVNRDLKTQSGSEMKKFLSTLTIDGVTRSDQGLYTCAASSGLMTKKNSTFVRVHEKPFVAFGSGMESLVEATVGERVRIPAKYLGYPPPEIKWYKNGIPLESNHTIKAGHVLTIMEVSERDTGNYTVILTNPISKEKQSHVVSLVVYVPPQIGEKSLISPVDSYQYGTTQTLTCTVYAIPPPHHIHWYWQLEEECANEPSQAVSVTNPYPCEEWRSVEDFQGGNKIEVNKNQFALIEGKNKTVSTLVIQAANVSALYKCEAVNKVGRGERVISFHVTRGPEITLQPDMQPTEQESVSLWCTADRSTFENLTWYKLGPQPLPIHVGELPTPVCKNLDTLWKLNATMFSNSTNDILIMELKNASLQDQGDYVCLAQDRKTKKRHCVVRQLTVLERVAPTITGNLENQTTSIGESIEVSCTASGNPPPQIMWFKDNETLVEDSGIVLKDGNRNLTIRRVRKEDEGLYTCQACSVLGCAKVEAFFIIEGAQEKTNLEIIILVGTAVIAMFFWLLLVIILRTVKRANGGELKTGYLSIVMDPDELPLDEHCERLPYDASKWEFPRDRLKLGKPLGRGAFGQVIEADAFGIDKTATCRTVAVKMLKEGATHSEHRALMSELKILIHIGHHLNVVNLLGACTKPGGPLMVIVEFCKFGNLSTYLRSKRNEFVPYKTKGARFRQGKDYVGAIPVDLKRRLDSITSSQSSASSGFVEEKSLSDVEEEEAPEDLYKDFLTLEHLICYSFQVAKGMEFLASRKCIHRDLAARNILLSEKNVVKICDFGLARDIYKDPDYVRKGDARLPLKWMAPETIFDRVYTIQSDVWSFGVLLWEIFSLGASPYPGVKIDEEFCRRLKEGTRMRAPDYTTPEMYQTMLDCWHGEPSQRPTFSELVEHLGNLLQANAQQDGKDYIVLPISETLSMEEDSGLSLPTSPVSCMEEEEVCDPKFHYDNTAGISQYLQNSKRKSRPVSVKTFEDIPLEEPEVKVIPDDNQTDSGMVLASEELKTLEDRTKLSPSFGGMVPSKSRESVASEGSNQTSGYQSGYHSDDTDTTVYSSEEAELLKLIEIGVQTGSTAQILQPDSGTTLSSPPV

Broadly, the IC50 is the concentration at which inhibition is half-maximal. Read a low IC50 as greater potency. `COc1cccc(NC(=O)Nc2ccc(Oc3nc4ccccc4n4cnnc34)cc2)c1` [11d, 1-(4-([1,2,4]Triazolo[4,3-a]quinoxalin-4-yloxy)phenyl)-3-(3-methoxyphenyl)urea] gave a 50% inhibitory concentration (IC50) against VEGFR-2 of 62.3 ± 2.77 nM. Moreover, the “Quantitative closure (%) for scratched assay after 48 h” value with MDA-231 cells turned out to be 27.51%. Moreover, the viability at 21.68 µM in the assay on MDA-MB-231 cells [1] (Homo sapiens, MDA-MB-231, 48 h, read-out: Viable (left bottom)) was determined as 20.2%. Besides, in the assay with MDA-MB-231 cells [1] (MDA-MB-231, 21.68 µM, 48 h, untreated 0.32), the “Necrosis (left top)” value is listed as 1.91 ^a %. For the same compound, the “Apoptosis, Late (right top)” value with MDA-MB-231 cells [1] (MDA-MB-231, 21.68 µM, 48 h, untreated 0.45) is 31.49 ^a %. The “Apoptosis, Early (right bottom)” value in the assay with MDA-MB-231 cells [1] (MDA-MB-231, 21.68 µM, 48 h, untreated 3.84) was 46.43 ^a %. Also, in the assay on MDA-MB-231 cells [2] (untreated 10.59), the “Cell cycle distribution (%), % G2/M” value is given as 3.74 ^a %. Further, the “Cell cycle distribution (%), % sub-G1” value with MDA-MB-231 cells [2] (untreated 19.48) amounted to 15.75%. For the same compound, the “Cell cycle distribution (%), % S” value in the assay with MDA-MB-231 cells [2] (untreated 24.95) is listed as 16.45 ^a %. Further, the “Cell cycle distribution (%), % G1” value in the assay on MDA-MB-231 cells [2] (untreated 44.98) is 64.06 ^a %. Also, in the assay on BAX, the “Gene expression (fold change), BAX” value was 5.48 ± 0.45 ^a fold change. The “Gene expression (fold change), Bcl-2” value in the assay on Bcl-2 is on record as 0.34 ± 0.01 ^a fold change. Besides, the “Gene expression (fold change), BAX/Bcl-2 ratio” value with BAX/Bcl-2 ratio is on record as 16.11 ± 1.01 fold change. In addition, in the assay on caspase-8, the “Gene expression (fold change), Caspases-8” value is on record as 4.15 ± 0.48 ^a fold change. For the same compound, the “Gene expression (fold change), Caspases-9” value in the assay on caspase-9 was 5.58 ± 0.40 ^a fold change.
